Results: patent US20240247015A1, “PHOSPHORUS DERIVATIVES AS NOVEL SOS1 INHIBITORS” (BAYER AKTIENGESELLSCHAFT, priority 2021, published 2024)

Biological target: interaction of human SOS1 (SOS1) with human K-RasG12C (Homo sapiens (Human), UniProt Q07889)
Assay: Biochemical assay: hK-RasG12C interaction assay with hSOS1 (HTRF)
Format: binding
Conditions: GST-hK-RasG12C with His-hSOS1, 60 min incubation at 20° C., mean, read-out: K-RasG12C - SOS interaction assay IC50 (mean)
Method in brief: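 Compounds, duplicates at 11 concentrations from 0.073 nM to 20 µM, were preincubated 2 min with 10 nM GST-hK-RasG12C, then 20 nM His-hSOS1 was added, all at 20 °C. After 60 min, 665/620 nm HTRF ratio normalized to DMSO and SOS1-free controls; IC50 by 4-parameter fit.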

interaction of human SOS1 (SOS1) with human K-RasG12C, sequence (Q07889 564-1049 limits assumed): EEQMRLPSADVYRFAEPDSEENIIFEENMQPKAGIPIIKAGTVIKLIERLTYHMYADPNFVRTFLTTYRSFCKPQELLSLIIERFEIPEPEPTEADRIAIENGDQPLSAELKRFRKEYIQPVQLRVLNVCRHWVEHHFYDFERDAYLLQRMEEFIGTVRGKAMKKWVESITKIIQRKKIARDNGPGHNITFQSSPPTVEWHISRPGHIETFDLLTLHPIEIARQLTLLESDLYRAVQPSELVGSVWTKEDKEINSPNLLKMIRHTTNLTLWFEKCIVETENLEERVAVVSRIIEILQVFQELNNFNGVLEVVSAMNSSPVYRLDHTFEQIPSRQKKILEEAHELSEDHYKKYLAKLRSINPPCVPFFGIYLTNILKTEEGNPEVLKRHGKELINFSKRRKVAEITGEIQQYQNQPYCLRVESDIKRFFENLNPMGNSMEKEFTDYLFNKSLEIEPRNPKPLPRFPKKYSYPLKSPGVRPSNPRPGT

Row | SMILES | IC50
1 | Cc1nc(N[C@H](C)c2cccc(C(F)(F)C(C)(C)O)c2F)c2cc(P(C)(C)=O)ncc2n1 [Example 3, 1-{3-[(1R)-1-{[6-(dimethylphosphoryl)-2-methylpyrido[3,4-d]pyrimidin-4-yl]amino}ethyl]-2-fluorophenyl}-1,1-difluoro-2-methylpropan-2-ol] | 19.1 nM
2 | Cc1nc(N[C@H](C)c2cccc(C(F)F)c2F)c2cc(P(C)(=O)C(C)C)ncc2n1 (single isomer, unassigned) [Example 115] | 80.3 nM
3 | Cc1nc(N[C@H](C)c2cccc(C(F)(F)C(C)(C)O)c2F)c2cc(P3(=O)CCN(Cc4ccccc4)CC3)ncc2n1 [Example 54, 1-benzyl-4-[4-({(1R)-1-[3-(1,1-difluoro-2-hydroxy-2-methylpropyl)-2-fluorophenyl]ethyl}amino)-2-methylpyrido[3,4-d]pyrimidin-6-yl]-1,4lambda^5-azaphosphinan-4-one] | 22.5 nM
4 | Cc1nc(N[C@H](C)c2cccc(C(F)(F)F)c2C)c2cc(P3(=O)CCN(C(=O)CC#N)CC3)ncc2n1 [Example 162, 3-{4-[2-methyl-4-({(1R)-1-[2-methyl-3-(trifluoromethyl)phenyl]ethyl}amino)pyrido[3,4-d]pyrimidin-6-yl]-4-oxo-1,4lambda^5-azaphosphinan-1-yl}-3-oxopropanenitrile] | 272 nM
5 | CCP(=O)(CC)c1cc2c(N[C@H](C)c3cccc(C(F)(F)C(C)O)c3F)nc(C)nc2cn1 (stereo in doubt) [Example 90, (2R*)-1-{3-[(1R)-1-{[6-(diethylphosphoryl)-2-methylpyrido[3,4-d]pyrimidin-4-yl]amino}ethyl]-2-fluorophenyl}-1,1-difluoropropan-2-ol] | 26.6 nM
6 | Cc1nc(N[C@H](C)c2cccc(C(F)(F)F)c2C)c2cc(P3(=O)CCN(c4cnn(C)c4)CC3)ncc2n1 [Example 39, 4-[2-methyl-4-({(1R)-1-[2-methyl-3-(trifluoromethyl)phenyl]ethyl}amino)pyrido[3,4-d]pyrimidin-6-yl]-1-(1-methyl-1H-pyrazol-4-yl)-1,4lambda^5-azaphosphinan-4-one] | 11.1 nM

Now those with a lower IC50, led by results:

Row | IC50 | SMILES
7 | 6.01 nM | [2H]C([2H])([2H])[C@]([2H])(Nc1nc(C)nc2cnc(P3(=O)CCN(C(C)=O)CC3)cc12)c1cccc(C(F)(F)F)c1C [Example 138, 1-acetyl-4-(2-methyl-4-{[(1S)-1-[2-methyl-3-(trifluoromethyl)phenyl](^2H4)ethyl]amino}pyrido[3,4-d]pyrimidin-6-yl)-1,4lambda^5-azaphosphinan-4-one]
8 | 9.69 nM | COCc1nc(P2(=O)CCN(C(C)=O)CC2)cc2c(N[C@H](C)c3cccc(C(F)(F)F)c3C)nc(C)nc12 [Example 37, 1-acetyl-4-[8-(methoxymethyl)-2-methyl-4-({(1R)-1-[2-methyl-3-(trifluoromethyl)phenyl]ethyl}amino)pyrido[3,4-d]pyrimidin-6-yl]-1,4lambda^5-azaphosphinan-4-one]
9 | 2.86 nM | Cc1nc(N[C@H](C)c2cccc(C(F)(F)C(O)C(C)C)c2F)c2cc(P(C)(C)=O)ncc2n1 (single isomer, unassigned) [Example 87, (2R*)-1-{3-[(1R)-1-{[6-(dimethylphosphoryl)-2-methylpyrido[3,4-d]pyrimidin-4-yl]amino}ethyl]-2-fluorophenyl}-1,1-difluoro-3-methylbutan-2-ol]
10 | 7.89 nM | Cc1nc(N[C@H](C)c2cccc(C(F)F)c2F)c2cc(P3(=O)CCN(C(=O)C4COC4)CC3)ncc2n1 [Example 158, 4-[4-{{(1R)-1-[3-(difluoromethyl)-2-fluorophenyl]ethyl}amino)-2-methylpyrido[3,4-d]pyrimidin-6-yl]-1-(oxetane-3-carbonyl)-1,4lambda^5-azaphosphinan-4-one]
11 | 8.38 nM | Cc1nc(N[C@H](C)c2cccc(C(F)F)c2F)c2cc(P3(=O)CCN(C(N)=O)CC3)ncc2n1 [Example 183]
12 | 7.8 nM | CC(=O)N1CCP(=O)(c2cc3c(N[C@H](C)c4cccc(C(F)F)c4F)nc(C)nc3cn2)CC1 [Example 10, 1-acetyl-4-[4-({(1R)-1-[3-(difluoromethyl)-2-fluorophenyl]ethyl}amino)-2-methylpyrido[3,4-d]pyrimidin-6-yl]-1,4lambda^5-azaphosphinan-4-one]
13 | 5.62 nM | Cc1nc(N[C@H](C)c2cccc(C(F)(F)F)c2C)c2cc(P3(=O)CCN(C(=O)C4(O)CC4)CC3)ncc2n1 [Example 173, 1-(1-hydroxycyclopropane-1-carbonyl)-4-[2-methyl-4-({(1R)-1-[2-methyl-3-(trifluoromethyl)phenyl]ethyl}amino)pyrido[3,4-d]pyrimidin-6-yl]-1,4lambda^5-azaphosphinan-4-one]
